These results are taken from PMC7903134, “Human glucocerebrosidase mediates formation of xylosyl-cholesterol by β-xylosidase and transxylosidase reactions” (Journal of Lipid Research, 2021).

One assay concerns the target T1, GBA3 (Homo sapiens, UniProt Q9H227).
T1 construct: GBA3 overexpressed in HEK293 cells, lysate
T1 sequence (Q9H227 1-469): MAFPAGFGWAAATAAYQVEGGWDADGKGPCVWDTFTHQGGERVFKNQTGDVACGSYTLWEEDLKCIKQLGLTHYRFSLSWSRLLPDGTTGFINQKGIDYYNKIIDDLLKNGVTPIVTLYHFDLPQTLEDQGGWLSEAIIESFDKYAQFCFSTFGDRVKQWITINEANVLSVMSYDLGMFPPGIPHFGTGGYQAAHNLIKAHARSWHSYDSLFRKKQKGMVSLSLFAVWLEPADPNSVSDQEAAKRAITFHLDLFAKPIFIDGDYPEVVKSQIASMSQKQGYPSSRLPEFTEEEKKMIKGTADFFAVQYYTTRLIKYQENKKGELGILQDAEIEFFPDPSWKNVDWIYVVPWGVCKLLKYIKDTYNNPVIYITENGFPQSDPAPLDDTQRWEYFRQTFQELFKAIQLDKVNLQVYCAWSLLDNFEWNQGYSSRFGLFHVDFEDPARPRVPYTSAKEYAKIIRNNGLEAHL
Briefly: hydrolysis and transxylosylation in lysates of GBA3-overexpressing HEK293 cells. It counts as cell-based.

Assay [1] has as its target T2, glucosylceramide synthase (GCS) (Homo sapiens, UniProt Q16739).
T2 construct: gene UGCG; GCS overexpressed in HeLa GCS KO cells, lysate
T2 sequence (Q16739 1-394): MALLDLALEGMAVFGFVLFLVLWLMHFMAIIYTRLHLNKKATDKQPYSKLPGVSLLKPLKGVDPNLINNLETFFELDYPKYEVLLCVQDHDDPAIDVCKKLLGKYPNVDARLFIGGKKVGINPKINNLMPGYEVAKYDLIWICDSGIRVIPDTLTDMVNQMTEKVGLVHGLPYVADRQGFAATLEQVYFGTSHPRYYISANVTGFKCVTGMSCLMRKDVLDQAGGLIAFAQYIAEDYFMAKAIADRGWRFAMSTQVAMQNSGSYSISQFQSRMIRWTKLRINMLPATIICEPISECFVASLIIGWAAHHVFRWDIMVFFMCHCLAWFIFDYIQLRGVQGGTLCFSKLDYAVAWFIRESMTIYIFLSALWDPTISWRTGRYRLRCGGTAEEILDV
Nature of the assay: XylCer formation in lysates of HeLa, GCS KO and GCS-reexpressing cells, LC-MS/MS. It counts as cell-based. An excerpt: formation in lysates of HeLa, GCS KO and GCS-reexpressing cells, LC-MS/MS on glucosylceramide synthase (GCS) | Expression of GCS in the GCS KO cells reinstalled their ability to produce […]

Assay [2] addresses T3, glucocerebrosidase (GBA), recombinant human (rhGBA, Cerezyme) (Homo sapiens, UniProt P04062).
T3 construct: gene GBA1
T3 sequence (P04062 40-536): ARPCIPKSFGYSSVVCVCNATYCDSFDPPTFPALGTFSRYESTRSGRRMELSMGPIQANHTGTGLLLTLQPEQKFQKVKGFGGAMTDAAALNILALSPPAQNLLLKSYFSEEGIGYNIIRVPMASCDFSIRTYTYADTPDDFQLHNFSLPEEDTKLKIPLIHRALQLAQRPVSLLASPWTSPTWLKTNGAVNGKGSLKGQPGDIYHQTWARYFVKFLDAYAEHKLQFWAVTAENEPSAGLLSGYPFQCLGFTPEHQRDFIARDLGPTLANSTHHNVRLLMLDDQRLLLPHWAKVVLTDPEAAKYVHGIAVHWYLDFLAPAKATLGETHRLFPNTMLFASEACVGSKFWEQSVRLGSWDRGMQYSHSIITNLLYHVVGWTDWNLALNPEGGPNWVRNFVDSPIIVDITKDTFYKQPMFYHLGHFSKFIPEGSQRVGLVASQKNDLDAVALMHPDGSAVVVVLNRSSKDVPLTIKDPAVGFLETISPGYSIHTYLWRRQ
Nature of the assay: transxylosylation/transglucosylation acceptor, LC-MS/MS of products. It counts as biochemical.

The next assay concerns the target T4, glucocerebrosidase (GBA) (Mus musculus, UniProt P17439).
T4 construct: gene Gba1; endogenous GBA in RAW264.7 cells
T4 sequence (P17439 20-515): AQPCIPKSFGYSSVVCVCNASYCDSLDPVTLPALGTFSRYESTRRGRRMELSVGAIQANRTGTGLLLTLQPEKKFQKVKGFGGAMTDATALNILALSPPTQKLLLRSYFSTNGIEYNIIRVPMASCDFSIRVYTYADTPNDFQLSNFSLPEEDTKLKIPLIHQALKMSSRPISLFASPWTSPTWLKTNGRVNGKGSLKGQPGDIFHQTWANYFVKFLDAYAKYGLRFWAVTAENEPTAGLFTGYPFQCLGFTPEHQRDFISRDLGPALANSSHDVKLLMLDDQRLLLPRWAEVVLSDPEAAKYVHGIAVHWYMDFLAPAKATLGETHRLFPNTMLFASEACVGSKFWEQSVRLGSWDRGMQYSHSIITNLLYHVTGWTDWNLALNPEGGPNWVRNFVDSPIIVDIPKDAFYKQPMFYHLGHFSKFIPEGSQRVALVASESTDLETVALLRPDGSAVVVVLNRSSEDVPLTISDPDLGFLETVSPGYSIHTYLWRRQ
Briefly: irreversible GBA inhibition in RAW264.[…] cells ([…]); xylosylated cholesterol by LC-MS/MS. It counts as cell-based.

The target of assay [3] is T3, glucocerebrosidase (GBA), recombinant human (rhGBA, Cerezyme). Briefly: fluorogenic 4-MU-β-Xyl ([…]) and 4-MU-β-Glc ([…]) hydrolysis after […] min preincubation. It counts as biochemical.

As to `Cc1cc(=O)oc2cc(O[C@@H]3OC[C@@H](O)[C@H](O)[C@H]3O)ccc12` [4-methylumbelliferyl β-D-xyloside], the “hydrolysis and transxylosylation in lysates of GBA3-overexpressing HEK293 cells” value on GBA3 is on record as “GBA3, albeit less prominent than GBA, was found to be able to hydrolyze 4-MU-β-Xyl”.
Consider `O=c1ccn([C@@H]2O[C@H](COP(=O)(O)OP(=O)(O)O[C@H]3OC[C@@H](O)[C@H](O)[C@H]3O)[C@@H](O)[C@H]2O)c(=O)[nH]1` [UDP-Xyl], for which the “XylCer formation in lysates of HeLa, GCS KO and GCS-reexpressing cells, LC-MS/MS” value in assay [1] is recorded as “Expression of GCS in the GCS KO cells reinstalled their ability to produce XylCer”.
As to `CC(C)CCC[C@@H](C)[C@H]1CC[C@H]2[C@@H]3CC=C4C[C@@H](O)CC[C@]4(C)[C@H]3CC[C@]12C` [cholesterol], in assay [2], the “transxylosylation/transglucosylation acceptor, LC-MS/MS of products” value was “we used natural cholesterol as the acceptor and 4-MU-β-Xyl as the donor”.
As for `O[C@H]1[C@H](O)[C@@H](O)[C@@H]2O[C@@H]2[C@@H]1O` [conduritol B-epoxide, L-1,2-anhydro-myo-inositol], the “irreversible GBA inhibition in RAW264.7 cells (300 μM); xylosylated cholesterol” value on glucocerebrosidase (GBA) is “formation was prohibited by prior inhibition of GBA with CBE”.
For `OC[C@@H]1[C@@H](O)[C@H](O)[C@@H](O)[C@@H]2O[C@H]12` [cyclophellitol], the IC50 (commonly the concentration at which inhibition is half-maximal) in assay [3] stood at 61 nM.
